The text below walks through data of patent US4051241A.

For series [1] the following is noted: cited from earlier work.
Series [2] in a line: Metabolic effects: loss of urinary nitrogen and calcium. On the procedure: Four normal subjects were admitted to a hospital metabolic ward and maintained on a constant diet for days 1-3, the equilibration period.
On days 4-9, the control period, the subjects were also kept on the same constant diet and their urine was collected every 24 hours and assayed for nitrogen and calcium, determined fluorometrically using the method of Henry, R. J., Clinical Chemistry Principles and Techniques, 3rd Edition, p.
On days 10-15, the treatment period, the subjects were still kept on the same constant diet, and 20 mg. (three subjects, 1, 2 and 3) and 12.5 mg. (one subject, 4) of 6-chloro-11β,17α,21-trihydroxypregna-1,4-diene-3,20-dione were daily orally administered in a single dose. The urine of the subjects was collected every 24 hours and assayed for nitrogen and calcium.
After 8 weeks had elapsed, subjects 1 and 2 were readmitted to the hospital metabolic ward.

The test system of series [3] is HPA axis.
Experimental: (§1) Each of 39 normal human subjects was hospitalized on a clinical pharmacology ward for the entire time (14 days) while the procedures described herein were carried out.
(§2) The following tests were performed, except as otherwise indicated in Table II below, on each of the subjects:
Metyrapone (METP) test, according to a modification of the method described by Liddle et al., J. Clin. Endocr. […] The urine of each of the subjects was collected at 6 hour intervals during the entire 14 day period and analyzed for 17-ketogenic steroids for the METP test.
On each of days 5-11 the various corticosteroids were orally administered, all subjects receiving their daily single dosage of corticosteroids at 6 A.M. Tabulated below, in Table II, are the numbers of subjects receiving a particular dosage per day of a particular corticosteroid.
For series [4], the system named is HPA axis. The following applies: oral, 6 A.M., 7 days.
Experimental: as §1, §2
On each of days 5-11 the various corticosteroids were orally administered, all subjects receiving their daily single dosage of corticosteroids at 6 A.M. Tabulated below, in Table II, are the numbers of subjects receiving a particular dosage per day of a particular corticosteroid. The dosage regimens chosen reflect the relative potencies of the corticosteroids tested.
For series [5] the following is noted: described in U.S. Pat. No. 3,232,965; cited from earlier work.
The conditions of series [6]: human, in vivo. On the procedure:
The plasma of each volunteer was analyzed for organic solvent extractable radioactivity over a 24 hour period.

The subject of series [7] is HPA axis. The following applies: in vivo. As to the method:
1. Fasting plasma cortisol level at 6 A.M. on each of days 1-14, according to the method of Murphy et al., J. Clin. Endocr.
3. […] The urine of each of the subjects was collected at 6 hour intervals during the entire 14 day period and analyzed for 17-ketogenic steroids for the METP test.

Like-named read-outs stand apart in the source and are kept apart here.

`C[C@]12C=CC(=O)C=C1CC[C@@H]1[C@@H]2[C@@H](O)C[C@@]2(C)[C@H]1CC[C@]2(O)C(=O)CO` [Prednisolone]: the “Plasma Half-Life” value in series [1] (Melby, Ann. Int. Med., 81:505-512, 1974) is ≥ 3.33 h. For the same compound, the “loss of nitrogen and calcium, comparison of 6-chloro compound with prednisolone” value in series [2] (equipotent doses, subjects 1 and 2) is “greater loss of both nitrogen and calcium”. Also, the “Normal/Total METP Response” value in the series with HPA axis [3] (25.0 mg per day, oral, 6 A.M., 7 days) was 3/3. Also, the “Normal/Total A.M. Plasma Cortisol” value in the series on HPA axis [4] (5.0 mg per day) and in the series on HPA axis [4] (10.0 mg per day) was 3/3 throughout.
On to `C[C@]12C=CC(=O)C=C1C(Cl)=C[C@@H]1[C@@H]2[C@@H](O)C[C@@]2(C)[C@H]1CC[C@]2(O)C(=O)CO`, for which the “loss of nitrogen and calcium, comparison of 6-chloro compound with prednisolone” value in series [2] (in vivo) was “minimized”. Besides, in series [5], the action result is “cortisone like (anti-inflammatory) action”. In addition, in series [6], the Plasma Half-Life is 2 h; the “half-life, volunteer No. 1” value is “approximately 110 minutes”; the “half-life, volunteer No. 2” value is reported as “approximately 125 minutes”. Moreover, the “unwanted side-effects associated with HPA axis suppression” value in the series on HPA axis [7] is on record as “not present”.
As for `C[C@]12C=CC(=O)C=C1CC[C@H]1[C@@H]3C[C@@H](O)[C@](O)(C(=O)CO)[C@@]3(C)C[C@H](O)[C@@]12F` [9α-Fluoro-16α-hydroxyprednisolone, 9α-fluoro-11β,16α,17α,21-tetrahydroxypregna-1,4-diene-3,20-dione], the “Plasma Half-Life” value in series [1] (in vivo) is ≥ 3.33 h.
With `C[C@H]1C[C@H]2[C@@H]3CCC4=CC(=O)C=C[C@]4(C)[C@@]3(F)[C@@H](O)C[C@]2(C)[C@@]1(O)C(=O)CO` [9α-Fluoro-16β-methylprednisolone], the “subjects showing a normal metyrapone test” value in the series with HPA axis [3] (in vivo) is given as “none”.
